PubChem BioAssay AID328 (DTP/NCI, 2004)
“And” between values parts separate entries of the source, which are not always exact repeats. Equal values may be shown once. Toxic doses and inconclusive results are not listed.

Tested on: BDF1 mice, P388 leukemia ip, median survival T/C
Assay: NCI In Vivo Anticancer Drug Screen. Data for tumor model P388 Leukemia (intraperitoneal) in B6D2F1 (BDF1) mice
Conditions: endpoint: median survival time, higher = longer survival
Outline: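 T/C = treated-group survival ÷ vehicle-control survival; tumour transplanted into mice before dosing.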

[1] = dose: 100.0 mg/kg/injection, schedule: Q04DX003 (ip), vehicle: saline with Tween-80
[2] = dose: 200.0 mg/kg/injection, schedule: Q04DX003 (ip), vehicle: saline with Tween-80
[3] = dose: 400.0 mg/kg/injection, schedule: Q04DX003 (ip), vehicle: saline with Tween-80
[4] = dose: 6.25 mg/kg/injection, schedule: Q01DX009 (ip), vehicle: saline
[5] = dose: 12.5 mg/kg/injection, schedule: Q01DX009 (ip), vehicle: saline
[6] = dose: 25.0 mg/kg/injection, schedule: Q01DX009 (ip), vehicle: saline
[7] = dose: 100.0 mg/kg/injection, schedule: Q04DX003 (ip), vehicle: Klucel (hydroxypropylcellulose) (HPC)
[8] = dose: 200.0 mg/kg/injection, schedule: Q04DX003 (ip), vehicle: Klucel (hydroxypropylcellulose) (HPC)
[9] = dose: 400.0 mg/kg/injection, schedule: Q04DX003 (ip), vehicle: Klucel (hydroxypropylcellulose) (HPC)
[10] = dose: 25.0 mg/kg/injection, schedule: Q01DX009 (ip), vehicle: Klucel (hydroxypropylcellulose) (HPC)
[11] = dose: 50.0 mg/kg/injection, schedule: Q01DX009 (ip), vehicle: Klucel (hydroxypropylcellulose) (HPC)
[12] = dose: 100.0 mg/kg/injection, schedule: Q01DX009 (ip), vehicle: Klucel (hydroxypropylcellulose) (HPC)
[13] = dose: 50.0 mg/kg/injection, schedule: Q01DX009 (ip), vehicle: saline
[14] = dose: 100.0 mg/kg/injection, schedule: Q01DX009 (ip), vehicle: saline
[15] = dose: 200.0 mg/kg/injection, schedule: Q01DX009 (ip), vehicle: saline
[16] = dose: 400.0 mg/kg/injection, schedule: Q01DX009 (ip), vehicle: saline
[17] = dose: 50.0 mg/kg/injection, schedule: Q04DX003 (ip), vehicle: saline with Tween-80
[18] = dose: 100.0 mg/kg/injection, schedule: Q01DX001 (ip), vehicle: saline with Tween-80
[19] = dose: 200.0 mg/kg/injection, schedule: Q01DX001 (ip), vehicle: saline with Tween-80
[20] = dose: 400.0 mg/kg/injection, schedule: Q01DX001 (ip), vehicle: saline with Tween-80
[21] = dose: 50.0 mg/kg/injection, schedule: Q01DX009 (ip), vehicle: saline with Tween-80
[22] = dose: 100.0 mg/kg/injection, schedule: Q01DX009 (ip), vehicle: saline with Tween-80
[23] = dose: 200.0 mg/kg/injection, schedule: Q01DX009 (ip), vehicle: saline with Tween-80
[24] = dose: 400.0 mg/kg/injection, schedule: Q01DX009 (ip), vehicle: saline with Tween-80
[25] = dose: 50.0 mg/kg/injection, schedule: Q04DX003 (ip), vehicle: saline
[26] = dose: 25.0 mg/kg/injection, schedule: Q01DX009 (ip), vehicle: saline with Tween-80
[27] = dose: 6.25 mg/kg/injection, schedule: Q04DX003 (ip), vehicle: saline
[28] = dose: 12.5 mg/kg/injection, schedule: Q04DX003 (ip), vehicle: saline
[29] = dose: 25.0 mg/kg/injection, schedule: Q04DX003 (ip), vehicle: saline

In the case of `CC1CCC2=C(C1)S(=O)(=O)CC2` (stereo unspecified), the T/C (dose: 6.25 mg/kg/injection, schedule: Q04DX002 (ip), vehicle: saline) is reported as 103 % of control, the T/C (dose: 12.5 mg/kg/injection, schedule: Q04DX002 (ip), vehicle: saline) is reported as 94 % of control and the T/C (dose: 25.0 mg/kg/injection, schedule: Q04DX002 (ip), vehicle: saline) is reported as 103 % of control.

For `CS/C(N)=N\S(=O)(=O)c1ccc(NC(C)=O)cc1`, the T/C [1] was 95 % of control, the T/C [2] was 119 % of control and the T/C [3] was 100 % of control.

`C1CN(P2(N3CC3)=NP(N3CC3)(N3CC3)=NP(N3CC3)(N3CC3)=N2)CCO1` (stereo unspecified) was tested, and the T/C [4] was 167 % of control and 195 % of control, the T/C [5] was 227 % of control and 200 % of control and the T/C [6] was 260 % of control and 155 % of control.

In the case of `CC(C)OC(=O)Oc1cccc2c1C(=O)c1ccccc1C2=O`, the T/C [7] is reported as 104 % of control, the T/C [8] is reported as 108 % of control and the T/C [9] is reported as 104 % of control.

With `C=C1C(=O)OC(/C=C(\C)CO)C1C(C/C(C)=C/CO)OC(=O)/C(C)=C\C` (stereo unspecified) the T/C (dose: 12.5 mg/kg/injection, schedule: Q01DX009 (ip), vehicle: Klucel (hydroxypropylcellulose) (HPC)) was 111 % of control, the T/C [10] was 111 % of control and the T/C [11] was 109 % of control. For the same molecule, the T/C [12] was 94 % of control and the T/C (dose: 200.0 mg/kg/injection, schedule: Q01DX009 (ip), vehicle: Klucel (hydroxypropylcellulose) (HPC)) was 94 % of control.

With `CCCC1CC[N-]CC1.CCCC1CC[N-]CC1.CCCC1CC[N-]CC1.CCCC1CC[N-]CC1.O=C([O-])C(=O)[O-].O=C([O-])C(=O)[O-].[Cl][Rh][Cl].[Nb+5].[O-][O-].[O-][O-]` the T/C [5] was 112 % of control, the T/C [6] was 91 % of control and 100 % of control and the T/C [13] was 87 % of control and 97 % of control and 98 % of control. For the same molecule, the T/C [14] was 87 % of control, the T/C [15] was 99 % of control and the T/C [16] was 91 % of control and 94 % of control.

In the case of `O=C1c2ccccc2C(=O)c2c(O)c(N3CCCCC3)cc(O)c21`, the T/C [13] is reported as 93 % of control, the T/C [14] is reported as 97 % of control and the T/C [1] is reported as 98 % of control. For the same molecule, the T/C [15] was 95 % of control, the T/C [2] was 109 % of control and the T/C [16] was 93 % of control. The T/C [3] was 106 % of control.

For `CCCCNC(=O)OC`, the T/C [11] was 100 % of control, the T/C (dose: 50.0 mg/kg/injection, schedule: Q04DX003 (ip), vehicle: Klucel (hydroxypropylcellulose) (HPC)) was 100 % of control and the T/C [12] was 100 % of control. For the same molecule, the T/C [7] was 95 % of control and the T/C [8] was 115 % of control.

With `CC1(C)N=C(N)N=C(N)N1c1cccc(OCCOc2ccc(NC(=O)CBr)cc2)c1` the T/C (dose: 50.0 mg/kg/injection, schedule: Q01DX009 (ip), vehicle: saline sonified) was 116 % of control and the T/C (dose: 100.0 mg/kg/injection, schedule: Q01DX009 (ip), vehicle: saline sonified) was 111 % of control.

`CC(Cc1ccccc1)C(N)=O` (stereo unspecified) was tested, and the T/C [17] was 105 % of control, the T/C [1] was 98 % of control and the T/C [2] was 113 % of control.

For `CNC(=O)Cc1[nH]ccc1C(=O)O`, the T/C [18] was 106 % of control, the T/C [19] was 103 % of control and the T/C [20] was 114 % of control.

For `CO[C@H]1/C=C/O[C@@]2(C)Oc3c(C)c(O)c4c(O)c(c(/C=N/N5CCNCC5)c(O)c4c3C2=O)NC(=O)/C(C)=C\C=C\[C@H](C)[C@H](O)[C@@H](C)[C@@H](O)[C@@H](C)C(OC(C)=O)[C@@H]1C` (stereo partly specified), the T/C [13] was 114 % of control, the T/C [14] was 114 % of control and the T/C [15] was 114 % of control.

`CCOc1ncc([N+](=O)[O-])c(OCC)n1` was tested, and the T/C [21] was 101 % of control, the T/C [22] was 106 % of control and the T/C [23] was 108 % of control. The T/C [24] was 106 % of control.

For `CCOC(=O)c1cnc2c(cnn2CC)c1NN=C(C)C`, the T/C [25] was 122 % of control and the T/C (dose: 200.0 mg/kg/injection, schedule: Q04DX003 (ip), vehicle: saline) was 111 % of control.

For `CC(=O)OCC1OC(OC2=C(CC=C(Cl)Cl)C(=O)c3ccccc3C2=O)C(OC(C)=O)C(OC(C)=O)C1OC(C)=O` (stereo unspecified), the T/C [26] was 100 % of control, the T/C [21] was 100 % of control and 104 % of control and the T/C [22] was 100 % of control and 102 % of control. For the same molecule, the T/C [23] was 117 % of control.

With `Nc1c(O)nc[nH]c1=O` the T/C (dose: 1.56 mg/kg/injection, schedule: Q01DX009 (ip), vehicle: saline) was 95 % of control, the T/C (dose: 3.13 mg/kg/injection, schedule: Q01DX009 (ip), vehicle: saline) was 109 % of control and 100 % of control and the T/C (dose: 3.13 mg/kg/injection, schedule: Q04DX003 (ip), vehicle: saline) was 95 % of control. The T/C [4] was 100 % of control, the T/C [27] was 86 % of control and 100 % of control and the T/C [5] was 100 % of control. The T/C [28] was 100 % of control.

In the case of `O=C(OC1(c2ccccc2)CCC1)c1cc([N+](=O)[O-])cc([N+](=O)[O-])c1`, the T/C [18] is reported as 97 % of control, the T/C [19] is reported as 96 % of control and the T/C [20] is reported as 99 % of control.

With `O=[N+]([O-])c1ccccn1` the T/C [27] was 100 % of control, the T/C [28] was 100 % of control and the T/C [29] was 104 % of control.

`CC(O)CN1CC(C)N(CC(C)O)CC1C` (stereo unspecified) was tested, and the T/C [28] was 104 % of control, the T/C [29] was 100 % of control and the T/C [25] was 100 % of control.

In the case of `CNc1ccc([N+](=O)[O-])cc1C(=O)OC`, the T/C [22] is reported as 104 % of control and the T/C [23] is reported as 96 % of control.

In the case of `COC(=O)c1cc(O)c(O)c(OC)c1`, the T/C [26] is reported as 111 % of control, the T/C [21] is reported as 101 % of control and the T/C [22] is reported as 86 % of control. The T/C [23] was 95 % of control.

In the case of `CCCCCCCCCCCCCCCCOc1ccccn1`, the T/C [10] is reported as 91 % of control, the T/C [11] is reported as 95 % of control and the T/C [12] is reported as 95 % of control. The T/C [7] was 100 % of control, the T/C [8] was 104 % of control and the T/C [9] was 122 % of control.

With `O=C(/C=C/c1ccc(OCc2ccccc2)cc1)c1ccccn1` the T/C [21] was 97 % of control, the T/C [22] was 98 % of control and the T/C [23] was 96 % of control.

For `CCOC(=O)C(=O)C1CCCC1=O` (stereo unspecified), the T/C [22] was 92 % of control, the T/C [1] was 95 % of control and the T/C [23] was 89 % of control. For the same molecule, the T/C [2] was 109 % of control, the T/C [24] was 92 % of control and the T/C [3] was 100 % of control.

In the case of `COC(=O)C(CSCc1ccccc1)NC(=O)CCNC(=O)OCc1ccccc1` (stereo unspecified), the T/C (dose: 1.56 mg/kg/injection, schedule: Q04DX003 (ip), vehicle: Klucel (hydroxypropylcellulose) (HPC)) is reported as 100 % of control, the T/C (dose: 3.13 mg/kg/injection, schedule: Q04DX003 (ip), vehicle: Klucel (hydroxypropylcellulose) (HPC)) is reported as 104 % of control and the T/C (dose: 6.25 mg/kg/injection, schedule: Q04DX003 (ip), vehicle: Klucel (hydroxypropylcellulose) (HPC)) is reported as 113 % of control. For the same molecule, the T/C (dose: 12.5 mg/kg/injection, schedule: Q04DX003 (ip), vehicle: Klucel (hydroxypropylcellulose) (HPC)) was 104 % of control, the T/C (dose: 12.5 mg/kg/injection, schedule: Q04DX003 (ip), vehicle: saline with Tween-80) was 93 % of control and the T/C (dose: 25.0 mg/kg/injection, schedule: Q04DX003 (ip), vehicle: saline with Tween-80) was 102 % of control. The T/C [17] was 100 % of control, the T/C [1] was 107 % of control and the T/C [2] was 94 % of control. For the same molecule, the T/C [3] was 94 % of control.

For `C[NH-].C[NH-].[I][Pt+2][I]`, the T/C (dose: 1.56 mg/kg/injection, schedule: Q04DX003 (ip), vehicle: other) was 120 % of control, the T/C (dose: 3.12 mg/kg/injection, schedule: Q04DX003 (ip), vehicle: other) was 120 % of control and the T/C (dose: 6.25 mg/kg/injection, schedule: Q04DX003 (ip), vehicle: other) was 163 % of control. The T/C (dose: 12.5 mg/kg/injection, schedule: Q04DX003 (ip), vehicle: other) was 163 % of control, the T/C (dose: 50.0 mg/kg/injection, schedule: Q04DX003 (ip), vehicle: other) was 154 % of control and the T/C (dose: 100.0 mg/kg/injection, schedule: Q04DX003 (ip), vehicle: other) was 116 % of control.

For `Cc1ccc(C)c(NC(=O)c2ccc(Cl)cc2Cl)c1`, the T/C (dose: 75.0 mg/kg/injection, schedule: Q01DX001 (ip), vehicle: other) was 90 % of control and the T/C (dose: 150.0 mg/kg/injection, schedule: Q01DX001 (ip), vehicle: other) was 90 % of control.
